In ChEMBL document CHEMBL3991601, “The target landscape of clinical kinase drugs” (Science, 2017):
Activity calls are given as the source filed them.

Key:
[1] = target: Maternal embryonic leucine zipper kinase (Homo sapiens, UniProt Q14680)
[2] = target: cAMP-dependent protein kinase type II-alpha regulatory subunit (Homo sapiens, UniProt P13861)
[3] = target: T1, ATP-dependent 6-phosphofructokinase, platelet type (Homo sapiens, UniProt Q01813)
T1 sequence (Q01813 whole entry): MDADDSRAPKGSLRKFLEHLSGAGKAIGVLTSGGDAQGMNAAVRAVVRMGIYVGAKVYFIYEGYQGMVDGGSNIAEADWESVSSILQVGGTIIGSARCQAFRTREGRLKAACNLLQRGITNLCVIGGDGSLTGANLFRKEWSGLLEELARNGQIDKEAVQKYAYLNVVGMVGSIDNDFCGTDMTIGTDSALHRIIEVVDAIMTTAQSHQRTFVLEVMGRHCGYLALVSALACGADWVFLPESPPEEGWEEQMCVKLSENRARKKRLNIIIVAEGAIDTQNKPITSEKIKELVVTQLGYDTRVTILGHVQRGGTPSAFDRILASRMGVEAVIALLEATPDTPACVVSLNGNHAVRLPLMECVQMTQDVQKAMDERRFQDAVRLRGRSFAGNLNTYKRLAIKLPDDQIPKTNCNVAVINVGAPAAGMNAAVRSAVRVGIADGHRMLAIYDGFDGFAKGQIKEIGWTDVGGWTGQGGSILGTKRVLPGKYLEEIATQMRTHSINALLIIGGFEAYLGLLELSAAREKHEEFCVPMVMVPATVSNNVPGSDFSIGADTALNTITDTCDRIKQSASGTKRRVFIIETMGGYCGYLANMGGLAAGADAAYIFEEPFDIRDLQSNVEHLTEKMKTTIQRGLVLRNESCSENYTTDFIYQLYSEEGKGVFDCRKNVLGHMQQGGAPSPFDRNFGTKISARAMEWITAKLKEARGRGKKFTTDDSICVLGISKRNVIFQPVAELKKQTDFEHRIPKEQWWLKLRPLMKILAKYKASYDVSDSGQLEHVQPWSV

[4] = target: T2, Serine/threonine-protein kinase ULK1 (Homo sapiens, UniProt O75385)
T2 sequence (O75385 whole entry): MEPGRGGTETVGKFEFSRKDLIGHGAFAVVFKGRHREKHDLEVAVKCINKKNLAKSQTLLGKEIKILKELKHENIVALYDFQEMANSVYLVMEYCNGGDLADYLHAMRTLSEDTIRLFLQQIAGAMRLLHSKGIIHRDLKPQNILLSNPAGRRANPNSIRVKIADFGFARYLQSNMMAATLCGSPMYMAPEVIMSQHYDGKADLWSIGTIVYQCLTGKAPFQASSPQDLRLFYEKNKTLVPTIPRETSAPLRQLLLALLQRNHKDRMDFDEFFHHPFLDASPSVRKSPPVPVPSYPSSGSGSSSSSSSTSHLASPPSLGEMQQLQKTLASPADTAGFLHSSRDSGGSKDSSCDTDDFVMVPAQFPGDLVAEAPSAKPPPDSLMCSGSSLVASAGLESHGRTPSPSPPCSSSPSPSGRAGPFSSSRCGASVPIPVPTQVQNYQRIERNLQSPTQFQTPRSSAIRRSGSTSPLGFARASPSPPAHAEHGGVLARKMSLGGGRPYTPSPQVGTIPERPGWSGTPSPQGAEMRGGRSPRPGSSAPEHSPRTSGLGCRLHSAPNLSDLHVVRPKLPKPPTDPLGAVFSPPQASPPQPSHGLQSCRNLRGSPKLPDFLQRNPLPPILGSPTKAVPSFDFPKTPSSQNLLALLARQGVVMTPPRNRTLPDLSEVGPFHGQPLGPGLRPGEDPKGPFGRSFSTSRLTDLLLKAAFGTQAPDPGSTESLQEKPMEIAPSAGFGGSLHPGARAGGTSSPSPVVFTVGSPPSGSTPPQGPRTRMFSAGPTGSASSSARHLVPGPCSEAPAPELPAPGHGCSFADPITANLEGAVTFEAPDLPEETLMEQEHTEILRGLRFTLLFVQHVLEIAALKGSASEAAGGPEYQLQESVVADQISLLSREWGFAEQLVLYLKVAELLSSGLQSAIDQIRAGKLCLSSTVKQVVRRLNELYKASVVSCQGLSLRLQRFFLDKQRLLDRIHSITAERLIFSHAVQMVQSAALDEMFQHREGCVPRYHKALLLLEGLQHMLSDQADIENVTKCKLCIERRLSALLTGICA

[5] = target: Myosin light chain kinase, smooth muscle (Homo sapiens, UniProt Q15746)
Insulin receptor = Insulin receptor (Homo sapiens, UniProt P06213)
Activin receptor type-2B = Activin receptor type-2B (Homo sapiens, UniProt Q13705)
Glycine--tRNA ligase = target: T3, Glycine--tRNA ligase (Homo sapiens, UniProt P41250)
T3 sequence (P41250 whole entry): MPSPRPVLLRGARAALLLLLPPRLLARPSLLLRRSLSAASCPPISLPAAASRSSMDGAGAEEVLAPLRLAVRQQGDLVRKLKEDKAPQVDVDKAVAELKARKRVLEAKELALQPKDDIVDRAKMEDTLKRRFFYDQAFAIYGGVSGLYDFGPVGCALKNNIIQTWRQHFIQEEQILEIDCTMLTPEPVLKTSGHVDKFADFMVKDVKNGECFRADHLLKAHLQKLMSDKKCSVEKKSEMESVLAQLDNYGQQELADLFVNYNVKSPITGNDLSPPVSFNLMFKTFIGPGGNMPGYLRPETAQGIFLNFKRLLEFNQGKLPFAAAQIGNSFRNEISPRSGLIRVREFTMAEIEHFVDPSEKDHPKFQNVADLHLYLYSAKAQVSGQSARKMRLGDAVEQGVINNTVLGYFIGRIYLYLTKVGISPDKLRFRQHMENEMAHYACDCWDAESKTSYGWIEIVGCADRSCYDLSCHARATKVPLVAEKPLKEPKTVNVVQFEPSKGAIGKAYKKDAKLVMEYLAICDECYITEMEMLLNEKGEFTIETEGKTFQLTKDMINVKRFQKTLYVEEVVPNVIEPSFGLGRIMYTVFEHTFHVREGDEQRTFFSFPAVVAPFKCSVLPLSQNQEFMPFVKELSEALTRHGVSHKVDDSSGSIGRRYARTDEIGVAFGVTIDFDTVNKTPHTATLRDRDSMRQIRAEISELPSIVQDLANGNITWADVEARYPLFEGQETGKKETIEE

[6] = target: Serine/threonine-protein kinase MRCK beta (Homo sapiens, UniProt Q9Y5S2)
[7] = target: Macrophage-stimulating protein receptor (Homo sapiens, UniProt Q04912)
Ephrin type-A receptor 5 = Ephrin type-A receptor 5 (Homo sapiens, UniProt P54756)
Further: in the data inactive means no Kd found up to 30 µM.

Chain of cAMP-dependent protein kinase type II-alpha regulatory subunit (P13861 whole entry): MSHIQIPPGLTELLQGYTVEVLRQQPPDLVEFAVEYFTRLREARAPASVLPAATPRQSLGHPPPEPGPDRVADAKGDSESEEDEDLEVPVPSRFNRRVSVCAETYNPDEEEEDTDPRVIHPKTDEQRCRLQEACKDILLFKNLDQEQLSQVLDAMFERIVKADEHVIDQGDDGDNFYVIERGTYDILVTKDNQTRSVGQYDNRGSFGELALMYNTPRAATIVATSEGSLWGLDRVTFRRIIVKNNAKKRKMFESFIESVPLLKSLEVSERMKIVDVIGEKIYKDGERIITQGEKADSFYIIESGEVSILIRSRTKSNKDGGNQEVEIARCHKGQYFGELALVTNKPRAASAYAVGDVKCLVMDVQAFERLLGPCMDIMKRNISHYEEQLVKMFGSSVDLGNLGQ
Chain of Activin receptor type-2B (Q13705 whole entry): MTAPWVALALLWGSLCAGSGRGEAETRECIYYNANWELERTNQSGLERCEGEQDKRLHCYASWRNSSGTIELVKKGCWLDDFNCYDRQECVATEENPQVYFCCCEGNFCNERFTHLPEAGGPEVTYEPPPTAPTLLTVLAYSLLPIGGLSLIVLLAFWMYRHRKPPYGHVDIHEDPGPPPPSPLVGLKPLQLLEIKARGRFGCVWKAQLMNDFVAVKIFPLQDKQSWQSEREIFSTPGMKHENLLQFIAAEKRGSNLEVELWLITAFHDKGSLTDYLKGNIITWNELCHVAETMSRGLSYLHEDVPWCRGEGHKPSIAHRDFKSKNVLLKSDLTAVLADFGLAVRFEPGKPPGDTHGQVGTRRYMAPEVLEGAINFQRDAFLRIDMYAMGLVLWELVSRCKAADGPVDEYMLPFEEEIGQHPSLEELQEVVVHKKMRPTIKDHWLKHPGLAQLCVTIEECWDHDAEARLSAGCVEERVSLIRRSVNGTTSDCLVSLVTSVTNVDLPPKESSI
Chain of Insulin receptor (P06213 28-758 limits assumed): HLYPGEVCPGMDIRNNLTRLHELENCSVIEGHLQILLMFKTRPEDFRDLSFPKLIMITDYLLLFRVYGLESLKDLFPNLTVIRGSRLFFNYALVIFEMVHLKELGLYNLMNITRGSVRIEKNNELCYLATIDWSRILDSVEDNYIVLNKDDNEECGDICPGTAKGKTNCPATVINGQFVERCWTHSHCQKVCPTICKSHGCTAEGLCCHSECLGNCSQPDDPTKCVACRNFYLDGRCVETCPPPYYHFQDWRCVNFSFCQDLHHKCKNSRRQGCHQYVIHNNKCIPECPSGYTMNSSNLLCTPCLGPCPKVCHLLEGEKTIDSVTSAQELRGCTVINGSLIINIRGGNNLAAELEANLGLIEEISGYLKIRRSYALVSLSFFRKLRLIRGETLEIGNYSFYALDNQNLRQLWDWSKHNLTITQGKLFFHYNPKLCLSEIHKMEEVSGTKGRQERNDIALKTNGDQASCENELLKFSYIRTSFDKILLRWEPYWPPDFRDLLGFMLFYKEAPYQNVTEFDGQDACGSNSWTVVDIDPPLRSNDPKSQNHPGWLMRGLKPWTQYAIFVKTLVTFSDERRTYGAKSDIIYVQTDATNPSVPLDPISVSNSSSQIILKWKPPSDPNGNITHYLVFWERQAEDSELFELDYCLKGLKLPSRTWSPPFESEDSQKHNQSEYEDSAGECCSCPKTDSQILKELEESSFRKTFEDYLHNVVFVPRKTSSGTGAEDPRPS
Chain of Insulin receptor (P06213 763-1382 limits assumed): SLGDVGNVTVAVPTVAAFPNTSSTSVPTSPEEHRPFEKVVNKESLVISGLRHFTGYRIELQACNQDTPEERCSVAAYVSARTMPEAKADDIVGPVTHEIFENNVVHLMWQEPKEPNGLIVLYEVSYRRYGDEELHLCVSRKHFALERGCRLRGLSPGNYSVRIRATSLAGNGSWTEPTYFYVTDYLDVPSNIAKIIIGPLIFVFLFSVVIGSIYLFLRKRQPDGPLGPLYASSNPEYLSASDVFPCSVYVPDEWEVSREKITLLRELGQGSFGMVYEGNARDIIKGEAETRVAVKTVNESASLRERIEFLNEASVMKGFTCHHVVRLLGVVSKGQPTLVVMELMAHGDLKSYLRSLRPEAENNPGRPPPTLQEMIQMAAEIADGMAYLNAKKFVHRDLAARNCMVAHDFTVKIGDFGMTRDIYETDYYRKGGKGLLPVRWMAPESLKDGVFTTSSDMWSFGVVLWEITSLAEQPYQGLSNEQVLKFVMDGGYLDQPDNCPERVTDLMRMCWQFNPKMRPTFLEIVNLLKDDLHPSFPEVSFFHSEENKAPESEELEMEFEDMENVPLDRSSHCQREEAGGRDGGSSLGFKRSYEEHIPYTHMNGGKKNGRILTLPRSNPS
Chain of Macrophage-stimulating protein receptor (Q04912 25-304 limits assumed): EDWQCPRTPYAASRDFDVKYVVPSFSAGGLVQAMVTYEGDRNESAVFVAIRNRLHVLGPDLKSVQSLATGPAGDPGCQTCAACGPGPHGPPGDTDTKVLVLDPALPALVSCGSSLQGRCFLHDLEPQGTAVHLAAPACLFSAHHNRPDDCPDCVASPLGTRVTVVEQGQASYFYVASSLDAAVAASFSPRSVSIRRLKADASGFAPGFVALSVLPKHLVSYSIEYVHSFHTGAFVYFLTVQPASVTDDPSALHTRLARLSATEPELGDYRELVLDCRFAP
Chain of Macrophage-stimulating protein receptor (Q04912 310-1400 limits assumed): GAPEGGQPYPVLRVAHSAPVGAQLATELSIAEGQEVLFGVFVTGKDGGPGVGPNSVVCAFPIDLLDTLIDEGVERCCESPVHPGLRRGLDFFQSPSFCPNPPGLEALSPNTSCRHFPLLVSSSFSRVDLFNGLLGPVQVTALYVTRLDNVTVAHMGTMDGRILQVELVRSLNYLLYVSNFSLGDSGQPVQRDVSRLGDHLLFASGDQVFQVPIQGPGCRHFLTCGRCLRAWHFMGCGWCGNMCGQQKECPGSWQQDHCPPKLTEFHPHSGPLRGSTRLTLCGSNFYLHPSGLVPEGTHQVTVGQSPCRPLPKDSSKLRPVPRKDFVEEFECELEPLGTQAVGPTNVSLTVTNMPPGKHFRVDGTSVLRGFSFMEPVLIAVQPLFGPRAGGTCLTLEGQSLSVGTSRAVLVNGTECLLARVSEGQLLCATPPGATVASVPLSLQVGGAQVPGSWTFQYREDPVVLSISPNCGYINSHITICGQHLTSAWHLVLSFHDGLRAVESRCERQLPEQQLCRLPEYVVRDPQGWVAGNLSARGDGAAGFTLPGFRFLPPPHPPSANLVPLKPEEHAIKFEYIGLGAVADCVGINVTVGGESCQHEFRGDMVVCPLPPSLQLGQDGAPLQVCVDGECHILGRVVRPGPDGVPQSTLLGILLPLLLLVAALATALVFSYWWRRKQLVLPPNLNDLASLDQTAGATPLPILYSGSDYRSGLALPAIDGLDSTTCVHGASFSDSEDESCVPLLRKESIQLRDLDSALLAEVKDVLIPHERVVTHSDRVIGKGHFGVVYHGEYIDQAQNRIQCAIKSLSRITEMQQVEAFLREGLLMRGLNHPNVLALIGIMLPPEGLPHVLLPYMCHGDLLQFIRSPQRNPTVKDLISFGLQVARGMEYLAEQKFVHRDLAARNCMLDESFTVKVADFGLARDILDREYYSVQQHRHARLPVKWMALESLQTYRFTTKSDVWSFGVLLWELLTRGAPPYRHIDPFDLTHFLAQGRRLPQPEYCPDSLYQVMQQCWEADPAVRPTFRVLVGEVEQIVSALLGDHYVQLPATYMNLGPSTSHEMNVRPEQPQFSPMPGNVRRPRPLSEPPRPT
Chain of Ephrin type-A receptor 5 (P54756 whole entry): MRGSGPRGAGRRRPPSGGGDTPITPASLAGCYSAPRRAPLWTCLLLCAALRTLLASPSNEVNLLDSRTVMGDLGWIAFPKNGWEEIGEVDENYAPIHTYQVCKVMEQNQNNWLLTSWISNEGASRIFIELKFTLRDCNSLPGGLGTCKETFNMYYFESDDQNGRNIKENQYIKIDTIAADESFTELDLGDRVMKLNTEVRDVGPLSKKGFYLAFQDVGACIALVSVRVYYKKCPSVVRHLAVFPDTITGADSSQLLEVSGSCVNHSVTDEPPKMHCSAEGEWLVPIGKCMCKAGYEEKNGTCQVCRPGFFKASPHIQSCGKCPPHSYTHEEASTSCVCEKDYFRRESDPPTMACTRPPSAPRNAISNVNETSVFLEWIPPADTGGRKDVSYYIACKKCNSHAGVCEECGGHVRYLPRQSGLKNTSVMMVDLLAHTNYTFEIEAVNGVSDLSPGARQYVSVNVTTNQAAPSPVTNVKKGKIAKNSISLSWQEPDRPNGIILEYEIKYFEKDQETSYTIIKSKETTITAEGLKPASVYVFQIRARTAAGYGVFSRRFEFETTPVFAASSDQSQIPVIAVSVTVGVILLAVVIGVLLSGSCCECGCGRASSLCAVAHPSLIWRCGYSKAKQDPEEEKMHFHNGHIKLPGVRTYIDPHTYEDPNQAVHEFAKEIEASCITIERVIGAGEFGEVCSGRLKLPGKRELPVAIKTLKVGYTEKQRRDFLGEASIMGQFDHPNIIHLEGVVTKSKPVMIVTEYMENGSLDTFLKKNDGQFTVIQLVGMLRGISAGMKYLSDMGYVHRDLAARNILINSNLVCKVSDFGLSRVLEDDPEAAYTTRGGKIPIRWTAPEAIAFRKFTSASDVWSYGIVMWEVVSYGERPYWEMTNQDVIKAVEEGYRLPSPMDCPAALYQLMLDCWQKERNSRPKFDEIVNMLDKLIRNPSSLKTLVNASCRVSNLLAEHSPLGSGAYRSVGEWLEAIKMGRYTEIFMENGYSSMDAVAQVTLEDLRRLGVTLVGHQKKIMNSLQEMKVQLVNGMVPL

| Structure (SMILES) | Kd [1] | Kd [2] | Kd [3] | Kd [4] | Kd [5] | Kd (Insulin receptor) | Kd (Activin receptor type-2B) | Kd (Glycine--tRNA ligase) | Kd [6] | Kd [7] | Kd (Ephrin type-A receptor 5) |
| --- | --- | --- | --- | --- | --- | --- | --- | --- | --- | --- | --- |
| Cc1cc(Nc2nc(N[C@@H](C)c3ncc(F)cn3)ncc2Cl)n[nH]1 [AZD-1480] | > 30 µM (inactive) | > 30 µM (inactive) | > 30 µM (inactive) | > 30 µM (inactive) | > 30 µM (inactive) | > 30 µM (inactive) | > 30 µM (inactive) | > 30 µM (inactive) | > 30 µM (inactive) | > 30 µM (inactive) | > 30 µM (inactive) |
| COc1cccc(Nc2ncnn3ccc(CN4CC[C@@H](N)[C@H](O)C4)c23)c1 [BMS-690514] | > 30 µM (inactive) | > 30 µM (inactive) | > 30 µM (inactive) | > 30 µM (inactive) | > 30 µM (inactive) | > 30 µM (inactive) | > 30 µM (inactive) | > 30 µM (inactive) | > 30 µM (inactive) | > 30 µM (inactive) | > 30 µM (inactive) |
| COc1cc2ncnc3c2cc1OCCCCCN(C)Cc1ccc(Br)cc1N3 [JNJ-26483327] | > 30 µM (inactive) | > 30 µM (inactive) | > 30 µM (inactive) | > 30 µM (inactive) | > 30 µM (inactive) | > 30 µM (inactive) | > 30 µM (inactive) | > 30 µM (inactive) | > 30 µM (inactive) | > 30 µM (inactive) | > 30 µM (inactive) |
| CCc1cc2c(cc1N1CCC(N3CCOCC3)CC1)C(C)(C)c1[nH]c3cc(C#N)ccc3c1C2=O [ALECTINIB] | > 30 µM (inactive) | > 30 µM (inactive) | > 30 µM (inactive) | > 30 µM (inactive) | > 30 µM (inactive) | > 30 µM (inactive) | > 30 µM (inactive) | > 30 µM (inactive) | > 30 µM (inactive) | > 30 µM (inactive) | > 30 µM (inactive) |
| CNC(=O)c1cccc(-c2ccc3c(N4CCOC[C@@H]4C)nc(N4CCOC[C@@H]4C)nc3n2)c1 [VISTUSERTIB] | > 30 µM (inactive) | > 30 µM (inactive) | 0.983 µM (active) | > 30 µM (inactive) | > 30 µM (inactive) | > 30 µM (inactive) | > 30 µM (inactive) | > 30 µM (inactive) | > 30 µM (inactive) | > 30 µM (inactive) | > 30 µM (inactive) |
| CNC(=O)c1cc(COc2nnc(Nc3ccc(Cl)cc3)c3ccoc23)ccn1 [TELATINIB] | > 30 µM (inactive) | > 30 µM (inactive) | > 30 µM (inactive) | > 30 µM (inactive) | > 30 µM (inactive) | > 30 µM (inactive) | > 30 µM (inactive) | > 30 µM (inactive) | > 30 µM (inactive) | > 30 µM (inactive) | > 30 µM (inactive) |
| O=C(NOC[C@H](O)CO)c1ccc(F)c(F)c1Nc1ccc(I)cc1F [MIRDAMETINIB] | > 30 µM (inactive) | > 30 µM (inactive) | > 30 µM (inactive) | > 30 µM (inactive) | > 30 µM (inactive) | > 30 µM (inactive) | > 30 µM (inactive) | > 30 µM (inactive) | > 30 µM (inactive) | > 30 µM (inactive) | > 30 µM (inactive) |
| Cc1cc(C(=O)Nc2cc(Oc3ccc4nc(NC(=O)C5CC5)cn4n3)ccc2C)n(C)n1 [TAK-593] | > 30 µM (inactive) | > 30 µM (inactive) | > 30 µM (inactive) | > 30 µM (inactive) | > 30 µM (inactive) | > 30 µM (inactive) | > 30 µM (inactive) | > 30 µM (inactive) | > 30 µM (inactive) | > 30 µM (inactive) | > 30 µM (inactive) |
| Cc1c(NC(=O)OC[C@@H]2COCCN2)cn2ncnc(Nc3ccc4c(cnn4Cc4cccc(F)c4)c3)c12 [AC-480] | > 30 µM (inactive) | > 30 µM (inactive) | > 30 µM (inactive) | > 30 µM (inactive) | > 30 µM (inactive) | > 30 µM (inactive) | > 30 µM (inactive) | > 30 µM (inactive) | > 30 µM (inactive) | > 30 µM (inactive) | > 30 µM (inactive) |
| COc1cc(Nc2ncc(F)c(Nc3ccc4c(n3)N(COP(=O)(O)O)C(=O)C(C)(C)O4)n2)cc(OC)c1OC [FOSTAMATINIB] | > 30 µM (inactive) | > 30 µM (inactive) | > 30 µM (inactive) | > 30 µM (inactive) | > 30 µM (inactive) | > 30 µM (inactive) | > 30 µM (inactive) | > 30 µM (inactive) | > 30 µM (inactive) | 2.13 µM (active) | > 30 µM (inactive) |
| C[C@@H]1COC(Nc2ccc3ncnc(Nc4ccc(OCc5nccs5)c(Cl)c4)c3c2)=N1 [VARLITINIB] | > 30 µM (inactive) | > 30 µM (inactive) | > 30 µM (inactive) | > 30 µM (inactive) | > 30 µM (inactive) | > 30 µM (inactive) | > 30 µM (inactive) | > 30 µM (inactive) | > 30 µM (inactive) | > 30 µM (inactive) | > 30 µM (inactive) |
| COCCN1CCN(Cc2ccc(-c3n[nH]c4c3C(=O)c3c(NC(=O)NN5CCOCC5)cccc3-4)cc2)CC1 [RGB-286638] | 1.46 µM (active) | > 30 µM (inactive) | > 30 µM (inactive) | > 30 µM (inactive) | > 30 µM (inactive) | > 30 µM (inactive) | > 30 µM (inactive) | > 30 µM (inactive) | 1.02 µM (active) | > 30 µM (inactive) | > 30 µM (inactive) |
